Data published in US11642413B2, “Compounds for degrading Tau protein aggregates and uses thereof” (Aprinoia Therapeutics Limited, priority 2019, dated 2023).
Values belong to the compound of their own block, whether it stands above or below them.

Legend:
[1] = molecular target: heparin-induced aggregated Tau (aTau) (Homo sapiens (Human), UniProt P10636); test: PBB5 competition assay; format: binding; conditions: for IC50: 0.12 μM aTau, 0.1 μM PBB5, 37° C., 1 hour; for Bmax: competition assay with PBB5
Chain of heparin-induced aggregated Tau (aTau) (P10636 other isoform, or with tags, fused parts or gaps): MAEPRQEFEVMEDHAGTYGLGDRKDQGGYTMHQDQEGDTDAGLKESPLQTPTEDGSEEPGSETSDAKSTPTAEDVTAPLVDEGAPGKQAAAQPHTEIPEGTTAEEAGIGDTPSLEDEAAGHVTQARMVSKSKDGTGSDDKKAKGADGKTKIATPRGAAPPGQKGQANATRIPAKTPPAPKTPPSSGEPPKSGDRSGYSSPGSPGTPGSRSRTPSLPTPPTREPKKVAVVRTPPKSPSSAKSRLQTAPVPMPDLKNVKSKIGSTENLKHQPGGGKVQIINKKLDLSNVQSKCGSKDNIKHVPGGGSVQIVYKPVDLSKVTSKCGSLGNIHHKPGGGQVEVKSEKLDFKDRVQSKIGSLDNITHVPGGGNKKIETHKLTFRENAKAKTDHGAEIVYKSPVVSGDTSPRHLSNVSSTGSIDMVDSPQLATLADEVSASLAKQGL
Protocol: 1 mM IPTG (Sangon Biotech, Cat. No A100487) was used to induce production of tau by bacteria (BL21, Invitrogen, Cat. No C600003) transformed with a full-length 2N4R tau expression plasmid. After 3 hours, cell pellet was resuspended in lysis buffer (100 mM PIPES, 1 mM EGTA, 1 mM MgSO4, pH 6.8) and lysed by sonication followed by centrifugation (15,000 rpm, 15 min, 4° C.). The supernatant was then placed in a boiling water bath for 20 min, followed by centrifugation (15,000 rpm, 15 min, 4° C.). Supernatant was loaded onto a Q-Sepharose® Fast Flow column (GE healthcare, Cat. No 17-0510-01), the flow-through fraction was loaded onto an SP-Sepharose® Fast Flow column (GE healthcare, Cat. No 17-0729-01), and tau protein was eluted with elution buffer (100 mM PIPES, 1 M NaCl, 1 mM EGTA, 1 mM MgSO4, 0.2 M NaCl, pH 6.8). Collected fractions of tau-containing eluates were pooled, concentrated and dialyzed against HEPES buffer (25 mM HEPES, 0.1 mM EDTA, 0.5 mM DTT, 100 mM NaCl, pH 7.2) and stored at −80° C. in small aliquots until use. Protein concentration was determined by UV absorption.
2 μM of tau prepared in 30 mM Tris-HCl, pH 7.5 buffer was incubated in tube with 15 μM heparin (Sigma, Cat. No H3149) at 37° C. for 24 hours.
2 μM of aTau was diluted to 0.12 μM by […] (pH 6.8) and then incubated with 0.1 μM 2-(4-(2-(methylamino)pyridine-5-yl)-1,3-butadiene-1-yl)benzothiazole-6-ol (PBB5) and serially diluted compound (three-fold serial dilution, from 10 to 0.00017 μM) in a 96-well plate (Corning, Cat. No 3573) at 37° C. for 1 hour. Fluorescence intensity (excitation/emission=530/690 nm) of PBB5 was read by microplate spectrometer (EnSpire 2300, PerkinElmer). Percentage of competition was calculated using the following equation: (Max−well of compound alone)/(Max−Min)*100%, where Max=(Tau+PBB5) signals−(buffer+PBB5) signals; and Min=(buffer+PBB5) signals−(buffer+PBB5) signals.
The IC50 value of each compound was calculated with GraphPad Prism software using the “4 Parameter Logistic Model or Sigmoidal Dose-Response Model”: Y=Bottom+(Top−Bottom)/(1+(IC50/X)^HillSlope)

[2] = molecular target: heparin-induced aggregated Tau (aTau), full-length 2N4R tau (Homo sapiens (Human), UniProt P10636); test: In vitro fluorometric aTau binding assay; conditions: 0.04 μM aTau, 37° C., 1 hour, fluorescence intensity
Chain of heparin-induced aggregated Tau (aTau), full-length 2N4R tau (P10636 other isoform, or with tags, fused parts or gaps): as above
Protocol: 1 mM IPTG (Sangon Biotech, Cat. No A100487) was used to induce production of tau by bacteria (BL21, Invitrogen, Cat. No C600003) transformed with a full-length 2N4R tau expression plasmid. After 3 hours, cell pellet was resuspended in lysis buffer (100 mM PIPES, 1 mM EGTA, 1 mM MgSO4, pH 6.8) and lysed by sonication followed by centrifugation (15,000 rpm, 15 min, 4° C.). The supernatant was then placed in a boiling water bath for 20 min, followed by centrifugation (15,000 rpm, 15 min, 4° C.). […] Protein concentration was determined by UV absorption. […]
2 μM aTau was diluted to 0.04 μM with 30 mM Tris-HCl (pH 6.8), and then incubated with serially diluted compound (three-fold serial dilutions, from 10 to 0.00017 μM) in a 96-well plate (Corning, Cat. No 3573) at 37° C. for 1 hour. Fluorescence intensity (excitation/emission=370/500 nm) of APN-0729 was read by microplate spectrometer (EnSpire 2300, PerkinElmer). Compound Kd values were calculated using the following equation: Y=Bmax*X/(Kd+X), where X is the concentration of compound; Y is the fluorescence signal of (compound+aTau)−(compound+DMSO); and Bmax is the maximum signal.

[3] = In vivo pharmacokinetic study of plasma and brain tissue; conditions: mice, 1 mg/kg, intravenous
Protocol: To determine whether the compounds of the present disclosure are capable of crossing the blood brain barrier (BBB), example compound 160313 was administered to mice in a pharmacokinetic study (1 mg/kg, intravenous) of plasma and brain tissue.
Animal Husbandry: Mice were housed at animal room environment with ventilation 15 times/hour, lighting 12 hours/day, temperature 20° C. to 24° C. and humidity 40% to 70%. The study rooms were disinfected and cleaned prior to the start of the study and the operation area was cleaned after each dosing or sampling during the study conduct. All animals had free access to food and water during the study. The animals had access to Certified Rodent Diet and water ad libitum. The nutritional composition and levels of contaminants of the diet and impurities and contaminants of the water were monitored by third organization. The health status of the animals was evaluated in accordance with accepted animal husbandry procedures and deemed suitable for experimental use.
Sample Collection & Processing: Approximately 110 μL of whole blood were collected from all animals via facial or cardiac puncture under anesthesia with Isoflurane into test tubes containing potassium ethylenediaminetetraacetate (K2EDTA) at 0.25, 0.5, 1, 2, 4, 8 and 24 hr post dose. Brian samples were collected at 0.25, 0.5, 1, 2, 4, 8 and 24 hours post dose. A perfusion with pre-cold saline will be conducted via cardiac puncture before brain collection. Blood samples were centrifuged at 2000 g at 4° C. for 5 minutes to obtain plasma samples by transferring the supernatants into new tubes. All plasma and brain samples were stored at approximately −70° C. until analysis.
Bioanalytical Method Development: The concentrations of compound in plasma and brain samples were determined using a liquid chromatography with tandem mass spectrometry (LC-MS/MS) based method.

Structure (SMILES): CN(C)c1ccc(-c2ccc(-c3nc4ccc(NCCOCCOCCOCCOCCOCCOc5ccc6c(c5)CN(C5CCC(=O)NC5=O)C6=O)cc4s3)cc2)cn1 (stereo not drawn) [Compound 160273, 3-[6-[2-[2-[2-[2-[2-[2-[[2-[4-[6-(dimethylamino)pyridin-3-yl]phenyl]-1,3-benzothiazol-6-yl]-amino]ethoxy]ethoxy]ethoxy]ethoxy]-ethoxy]ethoxy]-3-oxo-1H-isoindol-2-yl]piperidine-2,6-dione]
Bmax [1]: 59%

Structure (SMILES): CN(C)c1ccc2nc(-c3ccc(-c4ccc(NCCOCCOCCOCCOCCOCCOc5ccc6c(c5)C(=O)N(C5CCC(=O)NC5=O)C6=O)nc4)cc3)sc2c1 (stereo not drawn) [Compound 160275, 2-[2,6-bis(oxo)piperidin-3-yl]-5-[2-[2-[2-[2-[2-[2-[[5-[4-[6-(dimethylamino)-1,3-benzothiazol-2-yl]phenyl]pyridin-2-yl]amino]ethoxy]ethoxy]-ethoxy]ethoxy]ethoxy]ethoxy]isoindole-1,3-dione]
Bmax [1]: 96%

Structure (SMILES): CN(C)c1ccc(-c2ccc(-c3nc4ccc(NCCOCCOCCOCCOCCOCCOc5ccc6c(c5)C(=O)N(C5CCC(=O)NC5=O)C6=O)cc4s3)cc2)cn1 (stereo not drawn) [Compound 159985, 2-[2,6-bis(oxo)piperidin-3-yl]-5-[2-[2-[2-[2-[2-[2-[[2-[4-[6-(dimethylamino)-pyridin-3-yl]phenyl]-1,3-benzothiazol-6-yl]amino]ethoxy]ethoxy]ethoxy]ethoxy]ethoxy]-ethoxy]isoindole-1,3-dione]
Bmax [1]: 71%

Structure (SMILES): CN(C)c1ccc(-c2ccc(-c3nc4ccc(NCCOCCOc5ccc6c(c5)CN(C5CCC(=O)NC5=O)C6=O)cc4s3)cc2)cn1 (stereo not drawn) [Compound 160313, 3-[6-[2-[2-[[2-[4-[6-(dimethylamino)pyridin-3-yl]phenyl]-1,3-benzothiazol-6-yl]amino]ethoxy]ethoxy]-3-oxo-1H-isoindol-2-yl]piperidine-2,6-dione]
Bmax [1]: 64%
BBB penetration [3]: able to penetrate BBB in short period of time
Kp ([3]; mouse, brain/plasma, read-out: brain/plasma ratio): ~0.31
AUC(0-t) ([3]; mouse, Brain): 117 ng·h/mL
Cmax ([3]; mouse, Brain): 111 ng/mL
Tmax ([3]; mouse, Brain): 15 min
half-life ([3]; mouse, Brain): 61.8 min
AUC(0-t) ([3]; mouse, Plasma): 379 ng·h/mL
half-life ([3]; mouse, Plasma): 27.6 min

Structure (SMILES): CN(C)c1ccc(-c2ccc(-c3nc4ccc(NCCOCCOc5ccc6c(c5)C(=O)N(C5CCC(=O)NC5=O)C6=O)cc4s3)cc2)cn1 (stereo not drawn) [Compound 160219, 2-[2,6-bis(oxo)piperidin-3-yl]-5-[2-[2-[[2-[4-[6-(dimethylamino)pyridin-3-yl]phenyl]-1,3-benzothiazol-6-yl]amino]ethoxy]ethoxy]isoindole-1,3-dione]
Bmax [1]: 69%

The next lines start with the values.

IC50 [1]: 2.26 µM
Bmax [1]: =100%
Kd [2]: 0.36 µM
Structure (SMILES): CN(C)c1ccc(-c2ccc(-c3cn4cc(OCCOCCN5C(=O)CCC(N6C(=O)c7ccc(O)cc7C6=O)C5=O)ccc4n3)cc2)c(F)n1 (stereo not drawn) [Compound 160570]

Bmax [1]: 113%
Structure (SMILES): CN(C)c1ccc(-c2ccc(-c3cn4cc(OCCOCCOCCOCCOCCOCCOc5ccc6c(c5)C(=O)N(C5CCC(=O)NC5=O)C6=O)ccc4n3)cc2)c(F)n1 (stereo not drawn) [Compound 160744, 2-[2,6-bis(oxo)piperidin-3-yl]-5-[2-[2-[2-[2-[2-[2-[2-[4-[6-(dimethyl-amino)-2-fluoro-pyridin-3-yl]phenyl]imidazo[1,2-a]pyridin-6-yl]oxyethoxy]ethoxy]ethoxy]-ethoxy]ethoxy]ethoxy]isoindole-1,3-dione]

Bmax [1]: 80%
Structure (SMILES): CN(C)c1ccc2nc(-c3ccc(-c4ccc(NCCOCCOCCOCCOCCOCCOc5ccc6c(c5)CN(C5CCC(=O)NC5=O)C6=O)nc4)cc3)sc2c1 (stereo not drawn) [Compound 160383, 3-[6-[2-[2-[2-[2-[2-[2-[[5-[4-[6-(dimethylamino)-1,3-benzothiazol-2-yl]-phenyl]pyridin-2-yl]amino]ethoxy]ethoxy]ethoxy]ethoxy]-ethoxy]ethoxy]-3-oxo-1H-isoindol-2-yl]piperidine-2,6-dione]

IC50 [1]: 1 µM
Bmax [1]: =100%
Kd [2]: 0.1 µM
Structure (SMILES): CN(C)c1ccc2nc(-c3ccc(-c4ccc(NCCOCCN5C(=O)CCC(N6C(=O)c7ccc(O)cc7C6=O)C5=O)nc4)cc3)sc2c1 (stereo not drawn) [Compound 160703]
